Among the test systems are NCI/ADR-RES ovarian; CCRF-CEM leukemia; ACHN renal; SR leukemia; CAKI-1 renal; LOX IMVI melanoma; T-47D breast; SNB-19 CNS; OVCAR-5 ovarian; K-562 leukemia.
Holding throughout (assay): growth of human tumour cells (NCI), 48 h

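Tested at 5 concentrations; 48 h exposure; 96-well plates; endpoints linearly interpolated, else capped at highest concentration. GI50 is the concentration that inhibits growth by half. TGI denotes the concentration required for complete inhibition of growth.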

With `C/C=C\C(C)=C/C(C)C(=O)CC(O)CC1CC(=O)NC(=O)C1` (stereo not drawn), the TGI with NCI/ADR-RES ovarian is 48.2 µM; in the assay with CCRF-CEM leukemia, above 100 µM; in the assay on ACHN renal, above 100 µM; in the assay on SR leukemia, above 63.1 µM; in the assay on CAKI-1 renal it was above 67.5 µM; with LOX IMVI melanoma it was above 100 µM. Besides, the TGI in the assay with T-47D breast is above 100 µM; in the assay on SNB-19 CNS, above 90.6 µM; in the assay on OVCAR-5 ovarian, above 100 µM; with K-562 leukemia, above 100 µM.
For `Cn1c([N+](=O)[O-])cnc1/C=C1\Oc2ccc(Cl)cc2C1=O`, the GI50 with NCI/ADR-RES ovarian was 0.534 µM; in the assay with CCRF-CEM leukemia, 0.199 µM; in the assay with ACHN renal, 0.258 µM; in the assay on SR leukemia, 0.0676 µM; in the assay on CAKI-1 renal, 0.257 µM; in the assay on LOX IMVI melanoma, 0.25 µM. Besides, the GI50 in the assay on T-47D breast was 4.07 µM; in the assay on SNB-19 CNS, 1.77 µM; in the assay on OVCAR-5 ovarian, 2.16 µM; in the assay with K-562 leukemia it was 0.765 µM. Further, the TGI in the assay on NCI/ADR-RES ovarian was above 22.5 µM; with CCRF-CEM leukemia, 0.823 µM; in the assay on ACHN renal it was 0.921 µM; with CAKI-1 renal, 0.754 µM; with LOX IMVI melanoma, 0.825 µM; in the assay with T-47D breast it was 46.4 µM. The TGI was 6.95 µM in the assay with SNB-19 CNS, 6.53 µM with OVCAR-5 ovarian and above 26.9 µM in the assay with K-562 leukemia.
Turning to `O=C1/C(=C/c2ccc([N+](=O)[O-])s2)Oc2ccc(Cl)cc21`, the GI50 in the assay with NCI/ADR-RES ovarian is 0.738 µM; with CCRF-CEM leukemia, 0.273 µM; in the assay on ACHN renal, 0.234 µM; with SR leukemia, 0.204 µM; in the assay with CAKI-1 renal, 2.05 µM; in the assay with LOX IMVI melanoma, 0.239 µM. Also, the GI50 is 0.309 µM in the assay on T-47D breast, 0.512 µM with SNB-19 CNS, 1.53 µM in the assay with OVCAR-5 ovarian and 0.133 µM in the assay with K-562 leukemia. Besides, the TGI is 2.89 µM with NCI/ADR-RES ovarian; 0.72 µM with CCRF-CEM leukemia; 0.595 µM with ACHN renal; 0.73 µM in the assay with SR leukemia; 6.68 µM in the assay on CAKI-1 renal; 0.598 µM in the assay on LOX IMVI melanoma. Moreover, the TGI is 1.64 µM with T-47D breast, 1.55 µM in the assay on SNB-19 CNS, 3.01 µM with OVCAR-5 ovarian and 0.909 µM in the assay on K-562 leukemia.
Take `COc1ccc(/C(C)=C(\c2ccc(Cl)cc2)c2ccc(OCCN3CCCCC3)cc2)cc1F`: the GI50 in the assay with NCI/ADR-RES ovarian is 3.53 µM; in the assay with CCRF-CEM leukemia it was 3.98 µM; with ACHN renal, 4.93 µM; with SR leukemia, 1.8 µM; with CAKI-1 renal, 3.14 µM; in the assay with LOX IMVI melanoma, 2.42 µM. For the same compound, the GI50 was 4.25 µM in the assay on T-47D breast, 5.37 µM with SNB-19 CNS, 3.06 µM in the assay on OVCAR-5 ovarian and 0.698 µM in the assay with K-562 leukemia. Moreover, the TGI in the assay with NCI/ADR-RES ovarian was 9.67 µM; in the assay on CCRF-CEM leukemia, 16.1 µM; with ACHN renal it was 14.4 µM; in the assay with SR leukemia, above 16.7 µM; with CAKI-1 renal, 6.48 µM; in the assay on LOX IMVI melanoma it was 4.64 µM. Besides, the TGI was 14.5 µM with T-47D breast, above 16.7 µM in the assay with SNB-19 CNS, 9.45 µM in the assay with OVCAR-5 ovarian and 5.93 µM in the assay with K-562 leukemia.
Turning to `CC(=O)OC1C(OC/C2=C/C3[C@@H](C(C)C)CC=C(C)[C@@H]3CC(OC(=O)/C=C/c3cn(C)cn3)[C@]3(C)C=C[C@@]2(O)O3)OCC(O)C1O` (stereo partly drawn), the GI50 in the assay on NCI/ADR-RES ovarian is 4.81 µM; in the assay with CCRF-CEM leukemia it was 0.0399 µM; in the assay with ACHN renal, 0.381 µM; in the assay on SR leukemia, 0.0292 µM; with CAKI-1 renal it was 0.196 µM; with LOX IMVI melanoma, 0.0234 µM. Further, the GI50 in the assay with T-47D breast is 0.0219 µM; with SNB-19 CNS, 0.0364 µM; in the assay with OVCAR-5 ovarian it was 0.0207 µM; with K-562 leukemia, 0.0157 µM. Moreover, the TGI with NCI/ADR-RES ovarian is above 39.4 µM; in the assay with CCRF-CEM leukemia, above 50 µM; in the assay on ACHN renal, above 50 µM; with SR leukemia, above 50 µM; with CAKI-1 renal, above 13.2 µM; in the assay on LOX IMVI melanoma, above 50 µM. Moreover, the TGI in the assay with T-47D breast, in the assay with SNB-19 CNS and with K-562 leukemia was above 50 µM each time.
On to `N#Cc1ccccc1C#C/C=C\C#Cc1cnccn1`, for which the GI50 with NCI/ADR-RES ovarian was 4.32 µM; in the assay on CCRF-CEM leukemia it was 3.09 µM; in the assay with ACHN renal, 32.9 µM; with SR leukemia it was above 20.7 µM; in the assay with CAKI-1 renal, 6.95 µM; in the assay on LOX IMVI melanoma, above 21.1 µM. The GI50 in the assay with T-47D breast is above 66.3 µM; in the assay on SNB-19 CNS, 30.2 µM; in the assay with OVCAR-5 ovarian it was 6.09 µM; in the assay on K-562 leukemia, 4.73 µM. For the same compound, the TGI with NCI/ADR-RES ovarian was above 30.6 µM; in the assay on CCRF-CEM leukemia, above 100 µM; in the assay with ACHN renal it was 98.7 µM; in the assay on SR leukemia, above 79.7 µM; in the assay on CAKI-1 renal, above 23.4 µM; in the assay with LOX IMVI melanoma, above 60.9 µM. The TGI in the assay on T-47D breast was above 100 µM; in the assay with SNB-19 CNS, above 89.4 µM; in the assay with OVCAR-5 ovarian, above 49.9 µM; in the assay on K-562 leukemia, above 100 µM.
For `COc1ccc(N2CCN(CC(=O)N3CCN(c4nnc(-c5ccc(Cl)cc5)c(-c5ccc(Cl)cc5)n4)CC3)CC2)cc1`, the GI50 in the assay with NCI/ADR-RES ovarian is above 100 µM; in the assay with CCRF-CEM leukemia, 12.6 µM; with ACHN renal, 6.42 µM; in the assay with SR leukemia it was 2.56 µM; with CAKI-1 renal, 16.6 µM; in the assay on LOX IMVI melanoma it was 7.76 µM. The GI50 in the assay on T-47D breast was 3.64 µM; in the assay on SNB-19 CNS, above 100 µM; with OVCAR-5 ovarian, above 100 µM; in the assay on K-562 leukemia, 5.8 µM. In addition, the TGI was above 100 µM with NCI/ADR-RES ovarian; above 100 µM in the assay on CCRF-CEM leukemia; 55.6 µM with ACHN renal; 8.65 µM in the assay with SR leukemia; 82.7 µM in the assay with CAKI-1 renal; above 100 µM in the assay on LOX IMVI melanoma. The TGI with T-47D breast, in the assay with SNB-19 CNS, in the assay with OVCAR-5 ovarian and with K-562 leukemia was above 100 µM in each case.

The values above are taken from PubChem BioAssay (NCI).
